Measurements: ChEMBL document CHEMBL5465560, “Selectivity Literature for EUbOPEN Chemogenomic Library” (2024)
One block for each compound: values may come before it.

Key:
[1] = target: Mitogen-activated protein kinase kinase kinase kinase 1 (Homo sapiens) (UniProt Q92918); assay: Selectivity interaction (ActivX KiNativ screen (kinase selectivity in THP-1 cell lysates)) EUB0000639a MAP4K1; type: subcellular; settings: lysate, at 0.2 µM
[2] = target: T1, Serine/threonine-protein kinase Sgk3 (Homo sapiens) (UniProt Q96BR1); assay: Selectivity interaction (ActivX KiNativ screen (kinase selectivity in THP-1 cell lysates)) EUB0000639a SGK3; type: subcellular; settings: lysate
T1 sequence (whole entry): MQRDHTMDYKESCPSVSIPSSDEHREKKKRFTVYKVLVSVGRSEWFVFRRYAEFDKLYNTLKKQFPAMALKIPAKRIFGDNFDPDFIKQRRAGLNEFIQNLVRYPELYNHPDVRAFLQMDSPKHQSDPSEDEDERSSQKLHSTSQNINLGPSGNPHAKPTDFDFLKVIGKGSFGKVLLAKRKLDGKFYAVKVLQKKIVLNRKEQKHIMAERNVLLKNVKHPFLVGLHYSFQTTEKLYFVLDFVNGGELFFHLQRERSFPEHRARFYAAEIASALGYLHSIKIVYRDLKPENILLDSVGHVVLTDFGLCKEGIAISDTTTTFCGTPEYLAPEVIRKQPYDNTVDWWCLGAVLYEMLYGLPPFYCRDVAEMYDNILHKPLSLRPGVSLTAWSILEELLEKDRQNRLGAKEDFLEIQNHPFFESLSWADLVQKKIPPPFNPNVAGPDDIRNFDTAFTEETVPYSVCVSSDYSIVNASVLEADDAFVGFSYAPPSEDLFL

[3] = target: Tyrosine-protein kinase JAK1 (Homo sapiens, UniProt P23458); assay: Selectivity interaction (Kinase panel (Invitrogen)) EUB0000639a JAK1; settings: at 200 nM
[4] = target: T1, Serine/threonine-protein kinase Sgk3 (Homo sapiens); assay: Selectivity interaction (ProQinase) EUB0000171b SGK3
[5] = target: Glycogen synthase kinase-3 alpha (Homo sapiens, UniProt P49840); assay: Selectivity interaction (KinomeScan (DiscoverX)) EUB0000695a GSK3A; settings: at 100 nM
[6] = target: T2, Serine/threonine-protein kinase DCLK2 (Homo sapiens) (UniProt Q8N568); assay: Selectivity interaction (KinomeScan (DiscoverX)) EUB0000655a DCLK2; settings: at 10 µM
T2 sequence (whole entry): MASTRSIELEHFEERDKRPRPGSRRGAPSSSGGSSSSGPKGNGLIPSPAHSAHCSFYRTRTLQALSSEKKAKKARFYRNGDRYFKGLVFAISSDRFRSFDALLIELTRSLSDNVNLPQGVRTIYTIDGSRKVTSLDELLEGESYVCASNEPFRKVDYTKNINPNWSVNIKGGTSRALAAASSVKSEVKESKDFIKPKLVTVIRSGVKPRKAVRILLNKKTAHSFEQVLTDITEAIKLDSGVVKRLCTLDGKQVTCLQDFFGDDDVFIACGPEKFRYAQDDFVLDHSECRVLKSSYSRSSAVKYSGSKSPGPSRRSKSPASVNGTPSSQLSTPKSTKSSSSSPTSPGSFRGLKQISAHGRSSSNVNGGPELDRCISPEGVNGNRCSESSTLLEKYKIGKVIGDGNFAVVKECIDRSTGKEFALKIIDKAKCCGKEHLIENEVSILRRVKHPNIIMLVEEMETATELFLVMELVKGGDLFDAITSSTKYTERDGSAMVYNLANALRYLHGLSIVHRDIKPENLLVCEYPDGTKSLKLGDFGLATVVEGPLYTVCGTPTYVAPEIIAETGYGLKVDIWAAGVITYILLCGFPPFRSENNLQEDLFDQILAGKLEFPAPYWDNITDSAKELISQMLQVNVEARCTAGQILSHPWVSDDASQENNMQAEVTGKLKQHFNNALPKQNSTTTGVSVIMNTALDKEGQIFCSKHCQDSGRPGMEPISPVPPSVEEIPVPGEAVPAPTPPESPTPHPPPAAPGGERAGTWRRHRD

[7] = target: Serine/threonine-protein kinase SIK3 (Homo sapiens) (UniProt Q9Y2K2); assay: Selectivity interaction (KinomeScan (DiscoverX)) EUB0000045b SIK3
[8] = target: T3, cGMP-dependent protein kinase 1 (Homo sapiens) (UniProt Q13976); assay: Selectivity interaction (KinomeScan (DiscoverX)) EUB0000618a PRKG1; settings: at 10 µM
T3 sequence (whole entry): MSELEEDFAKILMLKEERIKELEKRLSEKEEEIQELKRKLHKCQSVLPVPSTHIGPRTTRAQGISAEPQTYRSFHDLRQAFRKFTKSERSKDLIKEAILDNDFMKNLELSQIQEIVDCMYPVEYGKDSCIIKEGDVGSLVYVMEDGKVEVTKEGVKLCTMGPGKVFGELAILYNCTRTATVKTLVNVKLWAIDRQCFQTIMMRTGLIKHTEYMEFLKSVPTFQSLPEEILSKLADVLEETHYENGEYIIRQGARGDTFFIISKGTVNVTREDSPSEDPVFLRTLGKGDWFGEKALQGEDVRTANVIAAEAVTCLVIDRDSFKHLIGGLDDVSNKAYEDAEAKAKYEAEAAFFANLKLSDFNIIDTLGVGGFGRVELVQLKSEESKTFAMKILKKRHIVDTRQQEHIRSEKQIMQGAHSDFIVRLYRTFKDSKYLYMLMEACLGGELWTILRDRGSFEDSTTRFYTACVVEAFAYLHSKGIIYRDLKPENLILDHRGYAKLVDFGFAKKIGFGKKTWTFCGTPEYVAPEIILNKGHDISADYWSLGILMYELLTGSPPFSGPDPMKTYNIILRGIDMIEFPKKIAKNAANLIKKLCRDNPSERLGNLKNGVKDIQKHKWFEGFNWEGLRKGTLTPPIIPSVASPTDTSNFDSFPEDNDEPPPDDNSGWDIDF

Aurora kinase B = Aurora kinase B (Homo sapiens, UniProt Q96GD4); assay: Selectivity interaction (KinomeScan (DiscoverX)) EUB0000618a AURKB; settings: at 10 µM
Sequence of Aurora kinase B (Q96GD4 whole entry): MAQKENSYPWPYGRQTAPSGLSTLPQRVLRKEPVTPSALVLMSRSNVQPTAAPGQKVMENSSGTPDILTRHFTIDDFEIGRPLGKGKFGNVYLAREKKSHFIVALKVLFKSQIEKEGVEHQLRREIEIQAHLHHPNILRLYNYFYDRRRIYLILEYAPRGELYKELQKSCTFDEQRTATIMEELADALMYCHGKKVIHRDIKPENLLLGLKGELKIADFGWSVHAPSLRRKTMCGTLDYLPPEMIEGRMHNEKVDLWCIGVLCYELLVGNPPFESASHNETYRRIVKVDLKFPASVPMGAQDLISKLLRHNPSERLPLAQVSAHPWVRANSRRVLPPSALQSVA

Sequence of Serine/threonine-protein kinase SIK3 (Homo sapiens) (Q9Y2K2 whole entry, looked up): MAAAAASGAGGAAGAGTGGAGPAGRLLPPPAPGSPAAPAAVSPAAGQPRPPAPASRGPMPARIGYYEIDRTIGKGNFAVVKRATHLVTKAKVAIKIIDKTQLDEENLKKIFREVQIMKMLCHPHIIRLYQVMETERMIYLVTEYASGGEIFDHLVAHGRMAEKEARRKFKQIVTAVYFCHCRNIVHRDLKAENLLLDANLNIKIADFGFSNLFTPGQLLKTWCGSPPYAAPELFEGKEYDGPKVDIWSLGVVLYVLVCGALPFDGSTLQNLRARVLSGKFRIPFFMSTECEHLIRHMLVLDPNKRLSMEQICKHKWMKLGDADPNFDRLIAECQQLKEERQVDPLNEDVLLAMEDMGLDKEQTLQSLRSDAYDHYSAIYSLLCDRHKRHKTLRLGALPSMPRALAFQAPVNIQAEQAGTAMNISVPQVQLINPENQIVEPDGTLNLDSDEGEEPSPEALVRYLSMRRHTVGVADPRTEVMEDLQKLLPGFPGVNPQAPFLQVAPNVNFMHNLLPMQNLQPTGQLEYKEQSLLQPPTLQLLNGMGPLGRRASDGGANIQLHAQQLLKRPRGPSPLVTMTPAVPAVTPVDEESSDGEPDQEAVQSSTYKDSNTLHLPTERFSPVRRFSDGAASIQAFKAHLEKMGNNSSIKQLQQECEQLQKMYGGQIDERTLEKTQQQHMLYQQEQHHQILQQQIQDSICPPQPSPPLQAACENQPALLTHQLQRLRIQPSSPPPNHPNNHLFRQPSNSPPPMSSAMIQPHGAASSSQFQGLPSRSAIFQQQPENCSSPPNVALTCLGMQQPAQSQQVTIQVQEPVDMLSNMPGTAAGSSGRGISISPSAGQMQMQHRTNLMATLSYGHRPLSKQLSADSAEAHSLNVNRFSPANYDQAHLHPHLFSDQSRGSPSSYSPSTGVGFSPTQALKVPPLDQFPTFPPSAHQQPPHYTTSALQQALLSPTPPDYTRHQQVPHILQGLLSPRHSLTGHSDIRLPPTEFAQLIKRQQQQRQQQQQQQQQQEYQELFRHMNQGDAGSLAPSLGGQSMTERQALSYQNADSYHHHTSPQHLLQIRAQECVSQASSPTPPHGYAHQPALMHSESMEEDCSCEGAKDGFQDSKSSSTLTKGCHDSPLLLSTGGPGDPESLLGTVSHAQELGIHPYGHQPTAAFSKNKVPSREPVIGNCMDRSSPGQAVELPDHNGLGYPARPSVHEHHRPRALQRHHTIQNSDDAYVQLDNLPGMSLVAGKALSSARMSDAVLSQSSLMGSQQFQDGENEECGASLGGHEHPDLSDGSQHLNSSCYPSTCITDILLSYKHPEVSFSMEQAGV
Sequence of Mitogen-activated protein kinase kinase kinase kinase 1 (Homo sapiens) (Q92918 whole entry, looked up): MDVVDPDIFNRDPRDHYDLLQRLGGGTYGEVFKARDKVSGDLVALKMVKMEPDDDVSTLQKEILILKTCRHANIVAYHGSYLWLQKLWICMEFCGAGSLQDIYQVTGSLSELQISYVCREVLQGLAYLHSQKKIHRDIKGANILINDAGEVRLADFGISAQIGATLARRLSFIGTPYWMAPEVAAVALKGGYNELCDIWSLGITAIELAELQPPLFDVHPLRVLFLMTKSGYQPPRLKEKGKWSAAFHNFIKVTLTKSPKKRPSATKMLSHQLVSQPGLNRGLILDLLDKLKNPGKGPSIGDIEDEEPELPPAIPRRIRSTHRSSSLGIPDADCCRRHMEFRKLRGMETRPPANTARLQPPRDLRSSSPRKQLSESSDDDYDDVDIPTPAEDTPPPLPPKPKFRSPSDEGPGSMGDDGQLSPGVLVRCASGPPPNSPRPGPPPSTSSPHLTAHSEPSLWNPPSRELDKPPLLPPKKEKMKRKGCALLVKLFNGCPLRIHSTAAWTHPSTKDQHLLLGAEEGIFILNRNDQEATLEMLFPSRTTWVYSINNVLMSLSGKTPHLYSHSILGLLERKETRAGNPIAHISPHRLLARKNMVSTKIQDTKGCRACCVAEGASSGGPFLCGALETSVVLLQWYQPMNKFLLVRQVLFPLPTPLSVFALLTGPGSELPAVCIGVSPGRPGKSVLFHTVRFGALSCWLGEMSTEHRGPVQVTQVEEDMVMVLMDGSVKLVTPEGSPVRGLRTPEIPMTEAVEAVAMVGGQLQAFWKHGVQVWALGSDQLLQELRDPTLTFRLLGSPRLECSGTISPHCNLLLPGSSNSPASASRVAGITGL
Sequence of Glycogen synthase kinase-3 alpha (P49840 2-483 limits assumed): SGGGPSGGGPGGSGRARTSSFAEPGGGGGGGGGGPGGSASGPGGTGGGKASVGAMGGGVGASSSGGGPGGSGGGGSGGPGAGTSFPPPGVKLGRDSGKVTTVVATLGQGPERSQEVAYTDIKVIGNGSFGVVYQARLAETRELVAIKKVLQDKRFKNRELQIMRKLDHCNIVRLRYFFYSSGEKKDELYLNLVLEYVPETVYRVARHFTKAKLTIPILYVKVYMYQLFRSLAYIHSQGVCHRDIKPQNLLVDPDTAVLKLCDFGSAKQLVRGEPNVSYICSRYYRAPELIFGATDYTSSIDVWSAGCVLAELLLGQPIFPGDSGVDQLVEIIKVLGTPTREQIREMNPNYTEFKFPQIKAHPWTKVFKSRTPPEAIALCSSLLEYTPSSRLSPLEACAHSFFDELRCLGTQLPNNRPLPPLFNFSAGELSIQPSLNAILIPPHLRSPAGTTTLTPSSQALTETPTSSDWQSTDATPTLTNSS
Sequence of Tyrosine-protein kinase JAK1 (P23458 whole entry): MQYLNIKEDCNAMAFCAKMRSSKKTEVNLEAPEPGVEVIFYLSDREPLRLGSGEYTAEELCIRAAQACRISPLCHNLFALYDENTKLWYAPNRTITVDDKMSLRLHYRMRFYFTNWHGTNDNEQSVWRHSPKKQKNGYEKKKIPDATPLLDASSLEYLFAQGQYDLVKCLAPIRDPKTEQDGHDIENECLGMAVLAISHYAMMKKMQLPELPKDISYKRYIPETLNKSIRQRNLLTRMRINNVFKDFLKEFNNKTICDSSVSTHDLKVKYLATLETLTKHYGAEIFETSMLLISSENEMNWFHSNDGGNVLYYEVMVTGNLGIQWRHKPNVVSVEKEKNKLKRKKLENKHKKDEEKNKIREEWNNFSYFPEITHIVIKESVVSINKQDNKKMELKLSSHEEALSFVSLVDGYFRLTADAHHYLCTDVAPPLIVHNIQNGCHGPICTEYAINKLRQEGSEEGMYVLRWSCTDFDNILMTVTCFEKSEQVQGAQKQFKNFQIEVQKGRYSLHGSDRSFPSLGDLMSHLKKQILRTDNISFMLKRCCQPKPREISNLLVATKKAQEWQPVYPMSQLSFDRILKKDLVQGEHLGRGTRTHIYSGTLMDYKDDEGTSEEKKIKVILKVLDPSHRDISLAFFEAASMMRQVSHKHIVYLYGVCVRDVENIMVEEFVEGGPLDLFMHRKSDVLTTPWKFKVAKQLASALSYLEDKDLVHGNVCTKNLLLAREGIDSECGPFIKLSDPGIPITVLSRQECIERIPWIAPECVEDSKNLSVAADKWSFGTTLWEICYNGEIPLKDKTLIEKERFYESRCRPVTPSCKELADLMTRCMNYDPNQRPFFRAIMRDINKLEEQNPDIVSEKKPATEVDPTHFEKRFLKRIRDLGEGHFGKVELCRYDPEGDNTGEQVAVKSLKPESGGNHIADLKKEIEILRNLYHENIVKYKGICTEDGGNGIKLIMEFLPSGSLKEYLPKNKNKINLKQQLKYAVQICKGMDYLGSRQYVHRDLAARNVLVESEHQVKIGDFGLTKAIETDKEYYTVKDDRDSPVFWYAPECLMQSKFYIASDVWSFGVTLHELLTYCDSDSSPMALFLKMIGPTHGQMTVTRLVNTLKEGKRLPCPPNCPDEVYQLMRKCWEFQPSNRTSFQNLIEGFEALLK

% of inhibition [1]: -15.1%
% of inhibition ([2]; at 0.01 µM): 51.3%
% of inhibition ([2]; at 0.04 µM): 6.7%
% of inhibition ([2]; at 0.2 µM): 7.4%
% of inhibition ([2]; at 1 µM): 18.9%
% of inhibition ([2]; at 5 µM): 25.3%
% of inhibition [3]: -0.407%
SMILES: CC[C@@H]1[C@H](F)C(=O)N[C@@H]1COc1nccc2cc(C(N)=O)c(OC)cc12 [ZIMLOVISERTIB]

% of control ([4]; at 1 µM): 82%
% of control ([4]; at 5 µM): 76%
SMILES: C=CC(=O)Nc1cccc(C(=O)Nc2ccc(Nc3cc(-c4[nH]c(SC)nc4C)ccn3)cc2)c1

SMILES: Cc1cc(F)c(C(=O)Nc2cccc(-c3nncn3C(C)C)n2)cc1-n1cnc(C2CC2)c1
% of control [5]: 80%

SMILES: CN(C)CCOc1ccc(-c2nc(-c3ccncc3)c(-c3ccc4c(c3)CC/C4=N\O)[nH]2)cc1
% of control [6]: 100%

SMILES: C=CC(=O)Nc1cc(-n2c(=O)ccc3cnc4ccc(-c5ccc(NS(C)(=O)=O)cc5)cc4c32)ccc1C
% of control ([7]; at 1 µM): 100%
% of control ([7]; at 10 µM): 100%

SMILES: O[C@H]1CC[C@H](Nc2ncc3nc(Nc4c(F)cc(F)cc4F)n([C@H]4CCOC4)c3n2)CC1
% of control [8]: 100%
% of control (Aurora kinase B): 100%
